Target: T1, P2X purinoceptor 7 (Homo sapiens, UniProt Q99572)
T1 sequence (Q99572 whole entry): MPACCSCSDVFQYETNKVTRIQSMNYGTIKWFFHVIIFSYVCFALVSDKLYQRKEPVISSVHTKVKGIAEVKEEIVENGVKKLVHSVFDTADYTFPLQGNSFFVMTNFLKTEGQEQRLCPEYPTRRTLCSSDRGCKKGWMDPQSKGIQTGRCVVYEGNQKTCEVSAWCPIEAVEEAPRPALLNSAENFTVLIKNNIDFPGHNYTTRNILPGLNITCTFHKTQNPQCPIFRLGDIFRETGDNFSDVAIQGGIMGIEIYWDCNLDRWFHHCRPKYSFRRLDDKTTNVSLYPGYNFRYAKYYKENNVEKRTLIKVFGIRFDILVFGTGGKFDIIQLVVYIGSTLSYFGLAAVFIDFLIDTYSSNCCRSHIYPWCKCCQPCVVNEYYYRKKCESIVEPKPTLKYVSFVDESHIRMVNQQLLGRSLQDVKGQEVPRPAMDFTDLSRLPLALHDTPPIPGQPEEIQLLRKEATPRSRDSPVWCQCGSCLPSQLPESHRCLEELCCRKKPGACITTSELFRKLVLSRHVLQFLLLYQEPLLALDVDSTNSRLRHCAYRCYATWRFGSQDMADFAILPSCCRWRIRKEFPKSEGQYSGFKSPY
Assay: Binding affinity to human P2X7 receptor expressed in HEK293 cells assessed as inhibition of BzATP-induced increase in ethidium bromide uptake by fluorescence plate reader analysis

O=C(NCc1cccc(C(F)(F)F)c1Cl)[C@@H]1CCC(=O)N1C/C=C/I
IC50: 9.8 nM
